The text below walks through data of US11291660B2, “Method of treating heart failure with preserved ejection fraction by administering milrinone” (Baker Heart and Diabetes Institute, priority 2014, dated 2022).

Each structure is given as a SMILES string.

The test system of data set [1] is HFpEF patients. As to conditions: cited from earlier work.
The next data set relates to HFpEF. To be noted: in vivo; cited from earlier work.
The subject of data set [2] is HFpEF patients. To be noted: cited from earlier work. The source holds these as a separate data set.
Data set [3] is described as follows: Saturated solubility of Milrinone in different buffers. In kind it is physicochemical. As to conditions: pH 1.2 to 7.4 buffers. On the procedure: Aim: To perform the saturated solubility of Milrinone in different buffers.
1. pH 1.2—Hydrochloric Acid Buffer
3. pH 6.8—Phosphate Buffer
4. pH 7.4—Phosphate Buffer.
• 1. 2 mL buffer solution is placed into a 8 mL USP Type I clear glass vial (with screw cap and PTFE septa) • 2. 10 mg of Milrinone is added in each vial and the vial is shaken to dissolve the compound. • 3. The addition of Milrinone is continued till the formation of saturated solution. • 4. The pH of the saturated solution is measured after the addition of Milrinone. • 5. If there is any difference in pH more than 0.1 units is observed when compared to the initial pH, the pH was adjusted with acid or base respectively to bring it to the initial pH. • 6. The vials are closed with screw cap and kept for mixing using rotary tube shaker for 24 h. Note: The vials are observed at frequent intervals and if the solution is clear, further amount of Milrinone is added to make a saturated solution.

Data set [4] deals with HFpEF patients. To be noted: cited from earlier work. The source holds these as a separate data set.

Take `CC(=O)S[C@@H]1CC2=CC(=O)CC[C@]2(C)[C@H]2CC[C@@]3(C)[C@@H](CC[C@@]34CCC(=O)O4)[C@H]12` [spironolactone]: in the data set with HFpEF patients [1], the “Left ventricular diastolic function” value is given as “improved left ventricular diastolic function” and the “Maximal exercise capacity, patient symptoms or quality of life” value is given as “did not affect”. For the compound `C[C@H]1O[C@@H](O[C@H]2[C@@H](O)C[C@H](O[C@H]3[C@@H](O)C[C@H](O[C@H]4CC[C@@]5(C)[C@H](CC[C@@H]6[C@@H]5C[C@@H](O)[C@]5(C)[C@@H](C7=CC(=O)OC7)CC[C@]65O)C4)O[C@@H]3C)O[C@@H]2C)C[C@H](O)[C@@H]1O` [digoxin], in the data set with HFpEF, the “Benefit as therapy for HFpEF” value is listed as “little or no conclusive benefit”. Take `CCCc1nn(C)c2c(=O)[nH]c(-c3cc(S(=O)(=O)N4CCN(C)CC4)ccc3OCC)nc12` [sildenafil]: the “Exercise capacity or clinical status” value with HFpEF patients [2] is on record as “did not result in improvement”. With `Cc1[nH]c(=O)c(C#N)cc1-c1ccncc1` [Milrinone, 1,2-dihydro-3-cyano-6-methyl-5-(4-pyridinyl)-2(1H)-pyridinone], in data set [3], the “Solubility as a function of pH (in words)” value is “highly soluble in acidic pH”. As to `COc1ccccc1OCC(O)CN1CCN(CC(=O)Nc2c(C)cccc2C)CC1` (stereo not drawn) [Ranolazine], the “Echocardiographic parameters or exercise performance” value in the data set with HFpEF patients [4] is “did not result in a change”.
